Experimental data: PMC9820303, “^αN-Acetyl β-Endorphin Is an Endogenous Ligand of σ1Rs That Regulates Mu-Opioid Receptor Signaling by Exchanging G Proteins for σ2Rs in σ1R Oligomers” (International Journal of Molecular Sciences, 2022)

Key:
Assay type in all cases: in vivo, mouse
[1] = test system: NMDAR overactivation seizures in CD1 mice; test: NMDA-induced seizures (1 nmol NMDA icv); settings: for effect on behavioral signs evoked by NMDA: 8 mice
Protocol: (§1) Figure 1 ^αN-acetyl β-End 1–31 reduced ischemic brain damage and diminished seizures induced by NMDAR overactivation. Implication of σ1Rs. (A) ^αN-acetyl β-End 1–31 administration diminished ischemic brain damage in wild-type but not σ1R^−/− mice. Upper panel: representative 2,3,5-triphenyltetrazolium chloride (TTC)-stained brain section images obtained from saline- and drug-treated mice (3 nmol, 1 h after surgery) 48 h after pMCAO. White indicates infarction; red staining indicates normal tissue. Lower panel: the bar graphs quantitatively compare the infarct volume based on TTC staining from wild-type mice treated with saline, β-End 1–31 and the σ1R agonist PRE084 (white bars). The reducing effect of ^αN-acetyl β-End 1–31 was counteracted by β-End 1–31 and PRE084 (gray bars). In σ1R^−/− mice, the positive effect of ^αN-acetyl β-End 1–31 was not observed. […] Effects of PPCC, β-End 1–31 and ^αN-acetyl β-End 1–31 on seizures induced by NMDA in wild-type and σ1R^−/− mice. The mice received icv 1 nmol of the NMDAR agonist NMDA 30 min after the other drugs (3 nmol) and were then immediately evaluated. […] ANOVA followed by the Holm–Sidak multiple comparisons test, p < 0.05, 1-β > 0.80.
Seizures were induced by injection of NMDA (1 nmol/mouse icv, in a volume of 4 μL sterile saline) as described by others. […] The seizure activity consisted of a mild myoclonic phase (immobility, mouth and facial movements, tail extension, circling), rearing (violent movements of the whole body, rearing), wild running (episodes of running with explosive jumps), clonic convulsions (characterized by rigidity of the whole body, including limb flexion/extension), followed by continuous/repetitive seizure activity (tonic seizures) and, in approximately 15–20% of the animals, death. The episode typically began a few seconds after injection and evolved to its maximal intensity in less than 1 min.

CCI CD1 mice = test: Chronic sciatic nerve constriction injury (CCI), mechanical allodynia, von Frey test
Protocol: Implication of σ1Rs. […] Upper panel: the withdrawal thresholds of the contralateral and ipsilateral paws were measured before (indicated as 0) and up to 14 days after surgery. […] Middle panel: 0.3 and 3 nmol of ^αN-acetyl β-End 1–31 were administered icv 7 days after surgery, and the nociceptive threshold was evaluated at the indicated postinjection intervals (in minutes). For every time interval studied in min or days, * indicates a significant difference from the group that received saline instead of ^αN-acetyl β-End 1–31; ϕ significant difference from the effect of 3 nmol ^αN-acetyl β-End 1–31. […] All data are presented as the mean ± SD of six mice. ANOVA followed by the Holm–Sidak multiple comparisons test, p < 0.05, 1-β > 0.80. […] Upper panel: wild-type mice were injected icv with saline, ^αN-acetyl β-End 1–31 (1 nmol/mouse) or the combination of the σ1R agonist PPCC (3 nmol/mouse) plus ^αN-acetyl β-End 1–31 20 min before morphine and β-End 1–31. Analgesia was evaluated by the warm water (52 °C) tail-flick test at the interval postinjection corresponding to their peak effect, 30 min. Lower panel: σ1R^−/− mice received 1 nmol ^αN-acetyl β-End 1–31, 20 min before morphine and β-End 1–31 and analgesia was evaluated as described above. Eight mice were used per strain and treatment. * Significant difference with respect to the group treated with morphine or β-End 1–31 alone. ANOVA followed by the Holm–Sidak multiple comparisons test, p < 0.05, 1-β > 0.80.
After the basal mechanical sensitivity of the mice was tested, neuropathic pain was induced by chronic sciatic nerve constriction injury (CCI) surgery under isoflurane/oxygen anesthesia using the procedure described by Bennett and Xie with modifications. Briefly, a 0.5 cm incision was made in the right midthigh, the biceps femoris muscle was separated, and the sciatic nerve was exposed proximal to its trifurcation. Two ligatures (5/0 braided silk suture; Lorca Marin, Murcia, Spain, 70,014) were tied around this nerve approximately 1 mm apart until a short flick of the ipsilateral hind limb was observed. The incision was then closed in layers with a 4–0 Ethicon silk suture. The same procedure was used for sham surgery, except that the sciatic nerve was exposed but not ligated. The tactile pain threshold of both the ipsilateral and contralateral hind paws was then assessed before and on different days post-surgery. The mice were individually placed in a transparent plastic cage with a wire-mesh bottom that allowed full access to the paws. After a habituation period of 20 min, a mechanical stimulus was delivered to the plantar surface from below the floor of the test chamber to measure allodynia using an automatic von Frey apparatus (Ugo Basile #37,450, Comerio, Italy). A steel rod (0.5 mm diameter) was pushed against the hind paw over a 10 s period as the force increased from 0 to 10 g. When the mouse withdrew its hind paw, the mechanical stimulus was automatically stopped, and the force at which withdrawal occurred was recorded. At each time point, three separate threshold measurements were obtained from each hind paw and then averaged.

[2] = test system: pMCAO in CD1 mice (wild-type and σ1R−/−); test: Permanent unilateral middle cerebral artery occlusion (pMCAO), infarct size by TTC staining
Protocol: as §1
Focal cerebral ischemia was induced via pMCAO, as described previously. Briefly, mice were anesthetized and a vertical skin incision was made between the left eye and ear under a dissection microscope. After drilling a small hole in the cranium at the level of the distal portion of the middle cerebral artery, the artery was occluded by cauterization. Flow obstruction was visually verified. Animals showing subdural haemorrhages or signs of incorrect surgery were immediately excluded from the study (<5% in each group). The mice were returned to their cages after surgery, kept at room temperature, and allowed food and water ad libitum. Strong lesion reproducibility was observed. […] The investigator performing the pMCAO surgery was blinded to the treatment group. To determine the infarct size 48 h after surgery, animals were euthanized and their brains were removed, after which six 1 mm thick coronal brain slices (Brain Matrix, WPI, UK) were obtained. The sections were stained with 2,3,5-triphenyltetrazolium chloride (1% TTC, Merck-Sigma). Samples were taken from each side of all brain sections with a digital camera (Nikon Coolpix 990, Tokyo, Japan), and the extent of unstained infarct area (expressed in mm^2) was integrated from the total area as an orthogonal projection.

[3] = 3 nmol icv 30 min before 1 nmol NMDA icv, wild-type mice

In the case of `COC(=O)[C@]1(c2ccc(C)cc2)C[C@@H]1CN1CCC(O)(c2ccccc2)CC1` [PPCC, (1R,2S/1S,2R)-2-[4-hydroxy-4-phenylpiperidin-1-yl)methyl]-1-(4-methylphenyl) cyclopropanecarboxylate, reference compound], the “effect on behavioral signs evoked by NMDA” value [1, 3] is reported as “did not significantly alter the behavioral effects” and the “effect on the anticonvulsant action of ^αN-acetyl β-End 1–31” value ([1]; 3 nmol icv with ^αN-acetyl β-End 1–31, wild-type mice) is reported as “prevented ^αN-acetyl β-End 1–31 from alleviating these signs”.
`Cl.O=C(OCCN1CCOCC1)C1(c2ccccc2)CCCCC1` [PRE084, 2-(4-morpholinethyl)-1-phenylcyclohexanecarboxylate hydrochloride, reference compound] was tested, and the “effect on the antiallodynic action of ^αN-acetyl β-End 1–31” value (CCI CD1 mice; 3 nmol icv together with 3 nmol ^αN-acetyl β-End 1–31) was “prevented the β-End 1–31 ^αN-acetyl derivative from diminishing the response of CCI mice in the von Frey test”, the “effect on the neuroprotection provided by ^αN-acetyl β-End 1–31” value ([2]; given with ^αN-acetyl β-End 1–31 (3 nmol icv), wild-type mice) was “prevented the neuroprotection” and the “effect on infarct volume, given alone” value ([2]; icv 60 min postsurgery (3 nmol), 48 h after pMCAO, wild-type mice) was “did not alter the extent of infarct volume”.
In the case of “^αN-acetyl β-End 1–31: β-End 1–31 acetylated at N terminal Y1, α position”, the “effect on mechanical allodynia, 0.3 nmol” value (CCI CD1 mice; 0.3 nmol icv 7 days after CCI surgery, von Frey, 6 mice) is reported as “significantly reduced mechanical allodynia”, the “effect on mechanical allodynia, 3 nmol” value (CCI CD1 mice; 3 nmol icv 7 days after CCI surgery, von Frey, 6 mice) is reported as “practically restored the von Frey response to the levels observed presurgery” and the “duration of clear protection” value (CCI CD1 mice; higher dose (3 nmol icv), partial protection for an additional 24 h) is reported as 24 h. For the same compound, the “time after icv administration at which the beneficial effect was observed” value (CCI CD1 mice; icv, 7 days after CCI surgery) was 10 to 15 min, the “effect on clonic convulsions and tonic seizures” value [1, 3] was “only a tendency to diminish clonic convulsions and tonic seizures” and the “effect on behavioral signs evoked by NMDA” value [1, 3] was “partially protected the mice from hypermobility and convulsive rearing”. The “anticonvulsant effects in σ1R−/− mice” value ([1]; σ1R−/− mice, 3 nmol icv) was “absent”, the infarct volume ([2]; 3 nmol icv 60 min postsurgery, 48 h after pMCAO, wild-type mice, mean ± SD, 5 to 8 mice, SD) was 1.2 ± 0.9 % of the total brain volume and the “reduction in the infarct size” value ([2]; 3 nmol icv 60 min postsurgery, 48 h after pMCAO, wild-type mice, untreated infarct 5.4 ± 1.2% of total brain volume) was ~80%. For the same compound, the “protective effect on pMCAO-produced ischemia in σ1R−/− mice” value ([2]; σ1R−/− mice, 3 nmol icv) was “did not exhibit protective effects”.
